Results published in patent US8815872B2, “Macrocyclics pyrimidines as aurora kinase inhibitors” (Merck Patent GmbH, priority 2008, dated 2014).
Where “and” joins values, the source holds several entries; their conditions need not be identical. Identical values can stand only once.

Tests used:
Assay in all cases: Other kinases, inhibition at 1 μM (Table 3)
Type in all cases: biochemical
YES1 = molecular target: T1, YES1 (Homo sapiens, UniProt P07947)
T1 construct: purchased Caliper Life Sciences
Experimental: (§1) The Aurora and other kinase assays described here were performed on two Caliper Life Sciences systems, the LC3000 and the Desktop Profiler. These provide data on enzyme activity via measurement of the relative amounts of phosphorylated or unphosphorylated fluorescently labelled substrate peptide at the end of an enzymatic reaction. These different states of peptide are resolved by applying a potential difference across the sample. The presence of a charged phosphate group on the product (as opposed to the substrate) causes a different peptide mobility between the two peptides. This is visualized by excitation of a fluorescent label on the substrate and product peptides and represented as peaks within the analysis software.
(§2) The Desktop Profiler utilizes the same principal as the LC 3000 for calculating percentage conversion of a substrate to product. Caliper Life Sciences provided proprietary flash frozen pre-made 384 well plates containing selected kinases. Each column in the 384 well plate contained a particular selected kinase. A second plate, the ‘substrate plate’ contained a mix of fluorescently labeled peptide substrate and ATP. These were arranged in columns so that transfer for substrate plate to enzyme plate provided the correct enzyme with the correct substrate/ATP concentration.
(§3) Compounds were added to a thawed enzyme plate in the desired format, in single concentrations. Reactions were initiated by transfer of the ubstrate/ATP mix from the substrate plate. The enzyme plate was incubated for 90 mins at 25 °C. The reaction was stopped by addition of […] of Stop Buffer (100 mM HEPES pH 7.5, 0.015% Brij-35, 10 mM EDTA (Sigma, E7889)).
(§4) Plates were read in a manner identical to that of the LC3000, and the ratio between substrate and product peaks provided the activity of the enzyme in that well. This was best represented by a plate heat map which colors each well by percent inhibition as compared to positive and negative controls (no inhibitors and no ATP respectively).

MAPKAP-K1-alpha = molecular target: T2, MAPKAP-K1-alpha (Homo sapiens, UniProt Q15418)
T2 construct: purchased Caliper Life Sciences
Experimental: as §1, §2, §3, §4

IGF1-R = molecular target: T3, IGF1-R (Homo sapiens, UniProt P08069)
T3 construct: purchased Caliper Life Sciences
Experimental: as §1, §2, §3, §4

MAPK1 = tested on: MAPK1
Experimental: as §1, §2, §3, §4

PKB-beta = molecular target: T4, PKB-beta (Homo sapiens, UniProt P31751)
T4 construct: purchased Caliper Life Sciences
Experimental: as §1, §2, §3, §4

DYRK1-alpha = molecular target: T5, DYRK1-alpha (Homo sapiens, UniProt Q13627)
T5 construct: purchased Caliper Life Sciences
Experimental: as §1, §2, §3, §4

CAMKKb = molecular target: T6, CAMKKb (Homo sapiens, UniProt Q96RR4)
T6 construct: purchased Caliper Life Sciences
Experimental: as §1, §2, §3, §4

MNK-2-alpha = molecular target: T7, MNK-2-alpha (Homo sapiens, UniProt Q9HBH9)
T7 construct: purchased Caliper Life Sciences
T7 sequence (Q9HBH9 whole entry): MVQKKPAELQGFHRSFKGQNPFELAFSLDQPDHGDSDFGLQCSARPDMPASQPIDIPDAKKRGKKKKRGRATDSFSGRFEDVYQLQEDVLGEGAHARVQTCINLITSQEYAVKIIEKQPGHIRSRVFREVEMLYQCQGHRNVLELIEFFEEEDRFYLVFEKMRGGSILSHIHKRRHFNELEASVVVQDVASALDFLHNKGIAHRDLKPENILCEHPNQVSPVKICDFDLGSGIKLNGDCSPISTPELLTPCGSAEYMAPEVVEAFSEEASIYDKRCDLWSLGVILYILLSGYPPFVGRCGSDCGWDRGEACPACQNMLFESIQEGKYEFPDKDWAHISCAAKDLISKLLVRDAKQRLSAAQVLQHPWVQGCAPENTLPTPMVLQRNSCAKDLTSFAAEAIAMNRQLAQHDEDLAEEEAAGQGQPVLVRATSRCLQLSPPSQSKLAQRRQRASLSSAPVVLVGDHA
Experimental: as §1, §2, §3, §4

LCK = molecular target: T8, LCK (Homo sapiens, UniProt P06239)
T8 construct: purchased Caliper Life Sciences
T8 sequence (P06239 whole entry, species assumed): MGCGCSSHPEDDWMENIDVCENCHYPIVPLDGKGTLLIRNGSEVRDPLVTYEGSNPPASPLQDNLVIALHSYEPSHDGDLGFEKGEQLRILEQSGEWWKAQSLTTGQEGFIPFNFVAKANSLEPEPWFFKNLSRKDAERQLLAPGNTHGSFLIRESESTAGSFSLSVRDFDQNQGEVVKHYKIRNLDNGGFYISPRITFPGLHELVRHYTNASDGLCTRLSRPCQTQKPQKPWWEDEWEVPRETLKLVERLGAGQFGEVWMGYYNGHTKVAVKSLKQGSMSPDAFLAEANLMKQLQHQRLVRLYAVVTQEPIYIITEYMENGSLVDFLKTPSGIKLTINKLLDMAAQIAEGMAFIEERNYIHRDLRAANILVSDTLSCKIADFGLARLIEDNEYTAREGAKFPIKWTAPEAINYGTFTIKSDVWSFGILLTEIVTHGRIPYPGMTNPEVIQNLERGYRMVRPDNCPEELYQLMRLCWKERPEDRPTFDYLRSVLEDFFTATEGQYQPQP
Experimental: as §1, §2, §3, §4

CK1-delta = molecular target: T9, CK1-delta (Homo sapiens, UniProt P48730)
T9 construct: purchased Caliper Life Sciences
Experimental: as §1, §2, §3, §4

EphA2 = molecular target: T10, EphA2 (Homo sapiens, UniProt P29317)
T10 construct: purchased Caliper Life Sciences
Experimental: as §1, §2, §3, §4

SAPK3 = molecular target: T11, SAPK3 (Homo sapiens, UniProt P53778)
T11 construct: purchased Caliper Life Sciences
T11 sequence (P53778 whole entry, species assumed): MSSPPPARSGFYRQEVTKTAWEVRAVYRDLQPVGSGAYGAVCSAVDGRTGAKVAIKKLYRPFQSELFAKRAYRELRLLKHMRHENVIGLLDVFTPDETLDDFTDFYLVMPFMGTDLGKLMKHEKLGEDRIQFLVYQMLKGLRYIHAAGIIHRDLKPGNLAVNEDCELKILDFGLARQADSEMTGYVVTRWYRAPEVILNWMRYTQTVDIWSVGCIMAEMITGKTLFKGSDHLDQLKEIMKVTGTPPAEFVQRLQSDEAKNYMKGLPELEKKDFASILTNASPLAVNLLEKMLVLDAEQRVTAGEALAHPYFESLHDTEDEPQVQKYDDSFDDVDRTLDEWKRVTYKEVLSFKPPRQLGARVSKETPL
Experimental: as §1, §2, §3, §4

SGK = molecular target: T12, SGK (Homo sapiens, UniProt O00141)
T12 construct: purchased Caliper Life Sciences
Experimental: as §1, §2, §3, §4

JNK1-alpha-1 = molecular target: T13, JNK1-alpha-1 (Homo sapiens, UniProt P45983)
T13 construct: purchased Caliper Life Sciences
T13 sequence (P45983 1-384 isoform P45983-2, species assumed): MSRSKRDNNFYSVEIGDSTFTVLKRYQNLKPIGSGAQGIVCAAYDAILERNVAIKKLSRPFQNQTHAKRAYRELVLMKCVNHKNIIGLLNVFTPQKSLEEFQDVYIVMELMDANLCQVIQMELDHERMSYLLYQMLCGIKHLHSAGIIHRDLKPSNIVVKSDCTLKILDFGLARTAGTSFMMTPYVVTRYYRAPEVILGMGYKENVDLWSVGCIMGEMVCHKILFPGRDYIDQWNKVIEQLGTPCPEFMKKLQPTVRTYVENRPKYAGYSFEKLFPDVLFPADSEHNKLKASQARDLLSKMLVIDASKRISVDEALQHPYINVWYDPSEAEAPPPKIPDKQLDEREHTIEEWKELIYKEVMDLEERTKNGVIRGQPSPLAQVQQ
Experimental: as §1, §2, §3, §4

MAPKAP-K1-beta = molecular target: T14, MAPKAP-K1-beta (Homo sapiens, UniProt P51812)
T14 construct: purchased Caliper Life Sciences
Experimental: as §1, §2, §3, §4

S6K1 = molecular target: T15, S6K1 (Homo sapiens, UniProt P23443)
T15 construct: purchased Caliper Life Sciences
T15 sequence (P23443 whole entry, species assumed): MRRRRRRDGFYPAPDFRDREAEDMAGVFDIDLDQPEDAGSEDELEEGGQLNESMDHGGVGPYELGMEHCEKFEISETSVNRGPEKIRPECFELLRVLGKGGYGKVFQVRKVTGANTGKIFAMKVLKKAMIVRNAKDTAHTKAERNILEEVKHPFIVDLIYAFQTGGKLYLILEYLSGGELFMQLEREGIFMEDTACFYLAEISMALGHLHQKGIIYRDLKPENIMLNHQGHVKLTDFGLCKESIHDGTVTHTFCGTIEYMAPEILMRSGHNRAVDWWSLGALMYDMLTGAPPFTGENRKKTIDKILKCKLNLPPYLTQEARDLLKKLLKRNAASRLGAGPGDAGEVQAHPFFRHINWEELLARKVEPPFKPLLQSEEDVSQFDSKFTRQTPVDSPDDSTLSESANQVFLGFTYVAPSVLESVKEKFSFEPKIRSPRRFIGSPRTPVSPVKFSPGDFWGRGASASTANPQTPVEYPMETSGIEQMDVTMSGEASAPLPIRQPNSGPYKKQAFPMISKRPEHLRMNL
Experimental: as §1, §2, §3, §4

TBK1 = molecular target: T16, TBK1 (Homo sapiens, UniProt Q9UHD2)
T16 construct: purchased Caliper Life Sciences
T16 sequence (Q9UHD2 whole entry, species assumed): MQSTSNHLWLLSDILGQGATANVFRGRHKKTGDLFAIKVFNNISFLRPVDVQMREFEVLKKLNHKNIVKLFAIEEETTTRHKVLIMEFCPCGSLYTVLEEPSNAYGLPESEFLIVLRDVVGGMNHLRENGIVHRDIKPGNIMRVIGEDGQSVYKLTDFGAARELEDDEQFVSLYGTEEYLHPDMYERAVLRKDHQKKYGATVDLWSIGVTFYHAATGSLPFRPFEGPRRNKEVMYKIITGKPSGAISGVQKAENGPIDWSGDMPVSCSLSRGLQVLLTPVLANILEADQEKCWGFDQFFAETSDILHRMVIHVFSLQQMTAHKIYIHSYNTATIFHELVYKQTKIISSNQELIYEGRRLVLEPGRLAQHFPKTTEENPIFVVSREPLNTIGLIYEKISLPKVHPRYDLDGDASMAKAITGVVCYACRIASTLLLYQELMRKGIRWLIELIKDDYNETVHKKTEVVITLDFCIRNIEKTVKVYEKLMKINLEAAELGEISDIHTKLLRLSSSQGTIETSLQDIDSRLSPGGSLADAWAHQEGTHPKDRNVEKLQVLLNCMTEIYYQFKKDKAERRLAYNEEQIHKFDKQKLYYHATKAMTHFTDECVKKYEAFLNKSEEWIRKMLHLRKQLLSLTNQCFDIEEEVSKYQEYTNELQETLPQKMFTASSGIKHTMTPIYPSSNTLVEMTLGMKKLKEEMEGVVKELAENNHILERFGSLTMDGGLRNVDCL
Experimental: as §1, §2, §3, §4

MAPK8 = tested on: MAPK8
Experimental: as §1, §2, §3, §4

PKC-alpha = molecular target: T17, PKC-alpha (Homo sapiens, UniProt P17252)
T17 construct: purchased Caliper Life Sciences
Experimental: as §1, §2, §3, §4

CDK2/cyclin A = molecular target: T18, CDK2/cyclin A (Homo sapiens, UniProt P24941)
T18 construct: purchased Caliper Life Sciences
Experimental: as §1, §2, §3, §4

PLK1 = molecular target: T19, PLK1 (Homo sapiens, UniProt P53350)
T19 construct: purchased Caliper Life Sciences
T19 sequence (P53350 whole entry, species assumed): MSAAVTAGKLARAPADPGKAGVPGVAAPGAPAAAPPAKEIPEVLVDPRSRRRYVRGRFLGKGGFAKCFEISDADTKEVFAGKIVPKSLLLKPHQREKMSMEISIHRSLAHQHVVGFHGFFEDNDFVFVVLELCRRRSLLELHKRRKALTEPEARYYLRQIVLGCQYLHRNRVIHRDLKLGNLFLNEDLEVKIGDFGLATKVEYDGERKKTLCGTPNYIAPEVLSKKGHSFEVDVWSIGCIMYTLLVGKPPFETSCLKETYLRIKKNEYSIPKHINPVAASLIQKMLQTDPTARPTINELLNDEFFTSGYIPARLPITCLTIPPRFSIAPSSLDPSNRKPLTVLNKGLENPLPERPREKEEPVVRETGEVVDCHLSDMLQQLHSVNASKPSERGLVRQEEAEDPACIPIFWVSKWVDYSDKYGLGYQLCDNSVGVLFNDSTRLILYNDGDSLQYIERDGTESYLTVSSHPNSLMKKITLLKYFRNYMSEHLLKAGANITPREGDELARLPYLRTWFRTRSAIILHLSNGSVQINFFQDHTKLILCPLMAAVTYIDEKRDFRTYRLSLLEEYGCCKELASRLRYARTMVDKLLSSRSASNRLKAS
Experimental: as §1, §2, §3, §4

EphB3 = molecular target: T20, EphB3 (Homo sapiens, UniProt P54753)
T20 construct: purchased Caliper Life Sciences
Experimental: as §1, §2, §3, §4

MAPK2 = molecular target: T21, MAPK2 (Homo sapiens, UniProt P28482)
T21 construct: purchased Caliper Life Sciences
Experimental: as §1, §2, §3, §4

EF2K = molecular target: T22, EF2K (Homo sapiens, UniProt O00418)
T22 construct: purchased Caliper Life Sciences
Experimental: as §1, §2, §3, §4

Nek2a = molecular target: T23, Nek2a (Homo sapiens, UniProt P51955)
T23 construct: purchased Caliper Life Sciences
T23 sequence (P51955 whole entry, species assumed): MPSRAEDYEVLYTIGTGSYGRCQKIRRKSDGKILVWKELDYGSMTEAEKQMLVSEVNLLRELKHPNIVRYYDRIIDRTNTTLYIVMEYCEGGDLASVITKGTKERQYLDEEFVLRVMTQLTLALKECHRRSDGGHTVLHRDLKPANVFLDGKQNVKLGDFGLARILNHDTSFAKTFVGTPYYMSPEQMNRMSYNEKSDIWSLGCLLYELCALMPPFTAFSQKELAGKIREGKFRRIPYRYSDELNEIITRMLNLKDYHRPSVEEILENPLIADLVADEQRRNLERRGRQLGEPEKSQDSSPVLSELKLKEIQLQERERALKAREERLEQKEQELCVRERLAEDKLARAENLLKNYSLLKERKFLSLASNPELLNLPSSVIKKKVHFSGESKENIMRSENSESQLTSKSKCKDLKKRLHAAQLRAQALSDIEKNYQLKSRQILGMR
Experimental: as §1, §2, §3, §4

HIPK2 = molecular target: T24, HIPK2 (Homo sapiens, UniProt Q9H2X6)
T24 construct: purchased Caliper Life Sciences
Experimental: as §1, §2, §3, §4

BRSK2 = molecular target: T25, BRSK2 (Homo sapiens, UniProt Q8IWQ3)
T25 construct: purchased Caliper Life Sciences
T25 sequence (Q8IWQ3 whole entry, species assumed): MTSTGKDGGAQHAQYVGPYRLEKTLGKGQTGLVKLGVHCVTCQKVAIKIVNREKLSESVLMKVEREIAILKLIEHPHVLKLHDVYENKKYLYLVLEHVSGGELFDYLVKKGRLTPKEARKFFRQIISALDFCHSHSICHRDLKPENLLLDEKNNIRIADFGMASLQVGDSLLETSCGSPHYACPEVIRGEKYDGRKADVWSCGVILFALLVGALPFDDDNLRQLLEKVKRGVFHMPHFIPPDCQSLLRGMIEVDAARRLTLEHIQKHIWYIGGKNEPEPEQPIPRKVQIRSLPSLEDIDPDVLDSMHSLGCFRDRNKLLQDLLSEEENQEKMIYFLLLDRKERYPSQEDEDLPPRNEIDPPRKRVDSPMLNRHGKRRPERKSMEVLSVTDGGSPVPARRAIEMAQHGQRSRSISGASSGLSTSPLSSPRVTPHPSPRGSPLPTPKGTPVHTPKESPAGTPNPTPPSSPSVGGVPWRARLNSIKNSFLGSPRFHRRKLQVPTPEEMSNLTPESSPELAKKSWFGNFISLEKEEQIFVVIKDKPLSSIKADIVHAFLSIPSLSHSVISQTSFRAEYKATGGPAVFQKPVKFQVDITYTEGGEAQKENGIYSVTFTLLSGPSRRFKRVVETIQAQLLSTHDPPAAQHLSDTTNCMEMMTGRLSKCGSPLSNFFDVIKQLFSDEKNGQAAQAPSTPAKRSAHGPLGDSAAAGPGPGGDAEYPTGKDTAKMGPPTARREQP
Experimental: as §1, §2, §3, §4

PKA = molecular target: T26, PKA (Homo sapiens, UniProt P17612)
T26 construct: purchased Caliper Life Sciences
Experimental: as §1, §2, §3, §4

MSK1 = molecular target: T27, MSK1 (Homo sapiens, UniProt O75582)
T27 construct: purchased Caliper Life Sciences
Experimental: as §1, §2, §3, §4

CHK2 = molecular target: T28, CHK2 (Homo sapiens, UniProt O96017)
T28 construct: purchased Caliper Life Sciences
Experimental: as §1, §2, §3, §4

PKD2 = molecular target: T29, PKD2 (Homo sapiens, UniProt Q9BZL6)
T29 construct: purchased Caliper Life Sciences
Experimental: as §1, §2, §3, §4

smMLCK = tested on: smMLCK
Experimental: as §1, §2, §3, §4

Pim-1 = molecular target: T30, Pim-1 (Homo sapiens, UniProt P11309)
T30 construct: purchased Caliper Life Sciences
Experimental: as §1, §2, §3, §4

BTK = molecular target: T31, BTK (Homo sapiens, UniProt Q06187)
T31 construct: purchased Caliper Life Sciences
Experimental: as §1, §2, §3, §4

| Compound | inhibition at 1 µM (YES1) [%] | % inhibition MAPKAP-K1-alpha (MAPKAP-K1-alpha) [%] | inhibition at 1 µM (IGF1-R) [%] | % inhibition MAPK1 (MAPK1) [%] | % inhibition PKB-beta (PKB-beta) [%] | inhibition at 1 µM (DYRK1-alpha) [%] | % inhibition CAMKKb (CAMKKb) [%] | % inhibition MNK-2-alpha (MNK-2-alpha) [%] | inhibition at 1 µM (LCK) [%] | % inhibition CK1-delta (CK1-delta) [%] | inhibition at 1 µM (EphA2) [%] | inhibition at 1 µM (SAPK3) [%] | inhibition at 1 µM (SGK) [%] | inhibition at 1 µM (JNK1-alpha-1) [%] | % inhibition MAPKAP-K1-beta (MAPKAP-K1-beta) [%] | inhibition at 1 µM (S6K1) [%] | inhibition at 1 µM (TBK1) [%] | % inhibition MAPK8 (MAPK8) [%] | % inhibition PKC-alpha (PKC-alpha) [%] | % inhibition CDK2/cyclin A (CDK2/cyclin A) [%] | other results |
| --- | --- | --- | --- | --- | --- | --- | --- | --- | --- | --- | --- | --- | --- | --- | --- | --- | --- | --- | --- | --- | --- |
| Fc1cnc2nc1NC1CCCC(C1)OC/C=C\COc1cccc(c1)N2 (single isomer, unassigned) [Example 33, (16Z)-6-fluoro-14,19-dioxa-2,4,8,26-tetraazatetracyclo[18.3.1.1˜3,7˜0.1˜9,13˜]hexacosa-1(24),3(26),4,6,16,20,22-heptaene] | 49 | 56 | 82 | 91 | 85 | 86 | 81 | 81 | 54 | 85 | 81 | 87 | 87 | 75 | 68 | 74 | 97 | 61 | 57 | 60 | % inhibition PLK1 (PLK1): 63% and 92%; inhibition at 1 µM (EphB3): 54%; % inhibition MAPK2 (MAPK2): 79%; inhibition at 1 µM (EF2K): 78%; % inhibition Nek2a (Nek2a): 82%; inhibition at 1 µM (HIPK2): 68%; inhibition at 1 µM (BRSK2): 81%; % inhibition PKA (PKA): 82%; % inhibition MSK1 (MSK1): 96%; % inhibition CHK2 (CHK2): 77%; % inhibition PKD2 (PKD2): 78%; % inhibition smMLCK (smMLCK): 92%; % inhibition Pim-1 (Pim-1): 65%; % inhibition BTK (BTK): 37% |
| NC(=O)[C@H]1[C@H]2C[C@H]3[C@H]1Nc1nc(ncc1F)Nc1cccc(c1)CSS[C@@H]3C2 [Example 10] | 9 | 12 | 2 | 78 | 101 | 83 | 73 | 82 | 14 | 92 | 25 | 72 | 82 | 14 | 19 | 94 | 100 | 9 | 56 | 94 | % inhibition PLK1 (PLK1): 4% and 12%; inhibition at 1 µM (EphB3): 4%; % inhibition MAPK2 (MAPK2): 90%; inhibition at 1 µM (EF2K): 62%; % inhibition Nek2a (Nek2a): 66%; inhibition at 1 µM (HIPK2): 23%; inhibition at 1 µM (BRSK2): 26%; % inhibition PKA (PKA): 72%; % inhibition MSK1 (MSK1): 77%; % inhibition CHK2 (CHK2): 12%; % inhibition PKD2 (PKD2): 73%; % inhibition smMLCK (smMLCK): 39%; % inhibition Pim-1 (Pim-1): 61%; % inhibition BTK (BTK): 2% |
